{
  "source": "patent US20190174748A1",
  "about": "“COMPOSITION FOR DELIVERY OF ACTIVE AGENTS TO AN ANIMAL” (priority 2015, published 2019)",
  "molecules": {"B1": {"name": "ovalbumin (protein, UniProt P01012 2-386, looked up)", "Ovalbumin": "GSIGAASMEFCFDVFKELKVHHANENIFYCPIAIMSALAMVYLGAKDSTRTQINKVVRFDKLPGFGDSIEAQCGTSVNVHSSLRDILNQITKPNDVYSFSLASRLYAEERYPILPEYLQCVKELYRGGLEPINFQTAADQARELINSWVESQTNGIIRNVLQPSSVDSQTAMVLVNAIVFKGLWEKAFKDEDTQAMPFRVTEQESKPVQMMYQIGLFRVASMASEKMKILELPFASGTMSMLVLLPDEVSGLEQLESIINFEKLTEWTSSNVMEERKIKVYLPRMKMEEKYNLTSVLMAMGITDVFSSSANLSGISSAESLKISQAVHAAHAEINEAGREVVGSAEAGVDAASVSEEFRADHPFLFCIKHIATNAVLFFGRCVSP", "notes": "ovalbumin, model vaccine / protein antigen, unprotected"}},
  "key": {"rats": {"test_system": "rats", "conditions": "250-500 g rats, baits at 4% Warfarin activity", "source_text": "Experimental Methods: 250-500 g rats are used. Rats are fed ad libitum. Each experimental group is housed in a separate cage.\nThe feed intake and kill effect on the rats are monitored."}, "Rodents": {"test_system": "Rodents", "conditions": "rodents ingesting baits; cited from earlier work"}, "BALB/C mice [1]": {"test_system": "BALB/C mice", "conditions": "baits at 4% Warfarin activity", "source_text": "Experimental Methods: Ten-twelve week old female BALB/C mice are used. Mice are fed ad libitum. Each experimental group is housed in a separate cage.\nThe feed intake and kill effect on the mice are monitored."}, "BALB/C mice [2]": {"test_system": "BALB/C mice", "experiment": "Oral administration of OVA composition to mice: OVA specific IgG, IgA (ELISA) and ASC", "format": "in vivo", "conditions": "mice inoculated at 0 and 3 weeks, sampled at week 4", "experimental": "Ovalbumin is orally administered to mice to test the efficacy of the inventive compositions in inducing an immune response.\nOvalbumin composition: Ovalbumin (1 mg/g of ovalbumin, Sigma, St. Louis, Mo.,) is incorporated into the inventive composition as described in Example 5. Three groups of 4 mice each are inoculated as follows: 1) ovalbumin (OVA) in the composition, administered orally, 2) OVA solution, administered subcutaneously (SC), 3) antigen free composition administered orally. Mice are inoculated at 0 and 3 weeks. Each dose administers a total 100 mg of dry composition mixed with corn oil at a ratio of 1:2 w/w of dry composition/oil, coated onto feed pellets. At week 4 each mouse is euthanized and serum and spleen cells are harvested.\nImmunological assays: Serum is assayed for IgG and IgA by ELISA. ELISA is performed using OVA absorbed to polystyrene plates. Samples are placed in wells in triplicate at a 1:25 dilution for serum. Goat anti-mouse antibody conjugated with horse radish peroxidase is used, followed by an orthophenylenediamine substrate (Sigma, St. Louis, Mo., U.S.A.). Optical density of each well is determined by placing the plate in a microtiter plate spectrophotometer and reading the plate at 490 nm. Spleen cells are tested for antibody secreting cells (ASC) specific for OVA, using techniques described previously."}, "[3]": {"experiment": "Degradation of unprotected OVA in simulated gastric fluid with 0.08% pepsin, pH 2", "format": "in vitro ADME", "conditions": "pH 2, 37° C.", "experimental": "Western Blot: the compositions were lysed with RIPA buffer as described above, and a calculated amount equivalent to 12 μg of protein per sample was loaded on a 10% SDS-polyacrylamide gradient gel (SDS-PAGE, Bio-Rad, Hercules, Calif.). Proteins were transferred onto a PVDF membrane (Bio-Rad) and blocked for 1 h with 5% non-fat milk in PBS containing 0.5% Tween-20 (PBS-T). Blots were incubated with an appropriate primary antibody at 1:5000 dilutions for 1 h at room temperature. After washing with PBS-T (3×10 mL, 5 min. each), the membranes were incubated with an appropriate HRP-conjugated secondary antibody (EMD Millipore Corporation, Billerica, Mass., USA) at 1:5000 dilution for 1 h. After washing with PBS-T (3×10 mL, 5 min. each), chemiluminescent films were developed with an ECL substrate (Amsheram Biosciences).\nTo evaluate the loss of activity of a protein antigen following a typical gastric exposure, non-encapsulated OVA (10 mg) was incubated in 10 ml simulated gastric fluid containing 0.08% pepsin at pH-2 for 2 h at 37° C. on a shaker. Medium was withdrawn at 15 min, 30 min, 60 min and 120 min incubation times, and the amount of residual OVA was analyzed using Western Blot analysis as described above."}},
  "data": [
    {"molecule": "CC(=O)CC(c1ccccc1)c1c(O)c2ccccc2oc1=O", "note": "(stereo not shown) [Warfarin]", "values": [
      {"measurement": "kill effect after 8 h from feeding", "setting": "rats", "result": "all group 2 rats remain alive"},
      {"measurement": "time to become unconscious", "setting": "Rodents", "result": "1 to 2", "unit": "h"},
      {"measurement": "time to obvious symptoms of poisoning", "setting": "Rodents", "result": "15 to 30", "unit": "min"},
      {"measurement": "time to recovery after sub lethal amount", "setting": "Rodents", "result": "≤ 8", "unit": "h"},
      {"measurement": "kill effect after 8 h from feeding", "setting": "BALB/C mice [1]", "result": "all group 2 mice remain alive"}
    ]},
    {"molecule": "ovalbumin [non-encapsulated OVA, ovalbumin, model vaccine / protein antigen, unprotected]", "values": [
      {"measurement": "OVA specific serum IgA, IgG and ASC secreting cells", "setting": "BALB/C mice [2]", "result": "equally increased"}
    ]},
    {"molecule": "B1", "values": [
      {"measurement": "Remaining activity (%)", "setting": "[3]; 15 min in simulated gastric fluid, relative to pre-exposure activity", "result": 61, "unit": "%"},
      {"measurement": "Remaining activity (%)", "setting": "[3]; 30 min in simulated gastric fluid", "result": 55, "unit": "%"},
      {"measurement": "Remaining activity (%)", "setting": "[3]; 60 min in simulated gastric fluid", "result": 38, "unit": "%"},
      {"measurement": "Remaining activity (%)", "setting": "[3]; 120 min in simulated gastric fluid", "result": 2, "unit": "%"}
    ]}
  ]
}
